Assay results: publication PMC8769378, “Underlining the Importance of Peripheral Protic Functional Groups to Enhance the Proton Exchange of Gd-Based MRI Contrast Agents” (Inorganic Chemistry, 2021)
Where two headings read alike, the source gives them in different places. Marks after values point to notes of the source that are not given here.

Key:
[1] = Conditional stability constant pGd; format: physicochemical; conditions: pGd = −log[Gd]free, [Gd^3+] = 1 μM, [L] = 10 μM, pH = 7.4; calculated from the constants
[2] = cited from earlier work
[3] = cited from earlier work; remark: listed apart in the source
[4] = cited from earlier work; remark: listed apart in the source
[5] = cited from earlier work; remark: listed apart in the source
[6] = cited from earlier work; remark: listed apart in the source
[7] = cited from earlier work; remark: listed apart in the source
[8] = design: method as in PMID 18963244, doi:10.1016/0020-1693(96)05094-3; conditions: cited from earlier work
[9] = cited from earlier work; remark: listed apart in the source
[10] = Acid-assisted dissociation kinetics of Gd^III complexes followed by ^1H NMR relaxometry; conditions: calculated from acid-assisted dissociation only, pH = 7.4, 298 K; comparators from literature constants
Excerpt: In order to investigate the kinetic inertness of the Gd^III complex, the dissociation reactions of GdL2 were followed by ^1H NMR relaxometry (21 MHz and 298 K) in the presence of large acid excess ([HCl] = 0.01–1.0 M) to guarantee the pseudo-first-order kinetic conditions.
The kinetic inertness of the GdL2 was characterized by the rates of the dissociation reactions taking place in 0.01–1.0 M HCl solution. The dissociation reactions of the GdL2 were followed by measuring the longitudinal relaxation time of H2O protons (T1) with a Stelar relaxometer connected to a Bruker WP80 NMR electromagnet adapted to variable-field measurements (15–80 MHz proton Larmor frequency). The temperature was controlled with a Stelar VTC-91 airflow heater equipped with a calibrated copper–constantan thermocouple (uncertainty of ±0.1 °C). Measures were carried out at 21 MHz and 25 °C. The longitudinal relaxation time (T1) was measured with the “inversion recovery” method (180° – τ – 90°) by using 16 different τ values with a typical 90° pulse width of 6.5 μs, 4 scans. The measurements were performed with a 1 mM solution of the GdL2 complex. The relaxivity values were given as r1 = 1/T1p + 1/T1w where T1p and T1w are the relaxation times of the bulk water protons in the presence and absence of GdL2. The pseudo-first-order rate constants (kd) were calculated by fitting the relaxation rate (r1 = 1/T1p) data to eq 4. […] 4 where rr and rv are the relaxivity values of the reactants and the product (Gd^3+: r1p = 12.85 (2) mM^–1 s^–1, 21 MHz, 25 °C) and rt is the measured relaxivity at reaction time t. The temperature was maintained at 25 °C, and the ionic strength of the solutions was kept constant at [H^+] ≤ 0.15 M, [HCl] + [NaCl] = 0.15 M. The calculation of the kinetic parameters was performed by the fitting of the absorbance–time and relaxation rate–time data pairs with the Micromath Scientist computer program (version 2.0, Salt Lake City, UT).
Kinetic inertness of GdL2
In order to investigate the kinetic inertness of GdL2, the dissociation reactions of GdL2 were followed
by 1H-NMR relaxometry in the presence of large acid excess ([HCl]= 0.01 – 1.0 M) to guarantee the
pseudo-first-order kinetic conditions. The R1obs values as a function of time for the dissociation
In the presence of HCl excess, the dissociation of GdL2 can be treated as a pseudo-first-order process
and the rate of the reaction can be expressed by Eq. (S7)
where kd is a pseudo-first-order rate constant, [GdL]t and [GdL]tot are the concentrations of the GdL
species at time t and the total concentration of the complex, respectively. The rates of the dissociation
reactions were determined at different concentrations of HCl ([HCl]=0.01 – 1.0 M).
The proton assisted dissociation
of GdL2 might occur by the equilibrium formation of a protonated *Gd(H2L2) intermediate (Eq.
(S8)), which dissociates spontaneously (Eq. (S9)).
Gd(HL2) + H Gd(H2L2) (S8)

[11] = cited from earlier work; remark: listed apart in the source
[12] = design: method as in PMID 34123071; conditions: 0.15 M NaCl, 298 K ref 7, cited from earlier work; for ^GdLH–1r1^is+os / ^GdLr1^is+os: 20 MHz
[13] = cited from earlier work; for ^298r1-60-MHz: 298 K; for ^310r1-60-MHz: 310 K
[14] = Longitudinal relaxivity r1 and relaxivity vs pH profiles; format: physicochemical; conditions: 21 MHz, 25 °C
Experimental: The longitudinal relaxivity values (r1) for GdL1 and GdL2, at 20 MHz (0.47 T), 298 K, and pH 7.4, are 4.7 and 5.1 mM^–1 s^–1, respectively. These are typical values of the clinical MRI contrast agents, i.e., low-molecular-weight q = 1 Gd^III chelates that tumble rapidly in solution.[1],[2] In particular, these values compare well with the r1 reported for GdHPDO3A[24] and other HPDO3A-like complexes such as GdHPDO3MA[25] or the series of Gd-hydroxypropylamide-DO3A (HPADO3A, Scheme 1)[7] complexes measured at the same experimental conditions.
At pH >3, the r1 values of GdL2 decrease with the increase of pH from 6.6 mM^–1 s^–1 to reach a plateau of 5.1 mM^–1 s^–1 around pH = 7.5. A further increase of the pH results in the slight increase of r1 reaching a maximum around pH = 9.5. Finally, at pH >9.5, another small decrease in r1 is observed. On the other hand, in the case of GdL1, the r1 values are independent from the pH in the range 4.0–7.5, whereas at pH >8.0, r1 increases up to 5.2 mM^–1 s^–1. The r1 values of GdL1 were measured in the pH range 4–10 in order to avoid the hydrolysis of the methyl ester. […] Then, the overall relaxivity, r1, is given by eq 1: [drawing 1] 1 where r1^is, r1^os, and r1^pr are the relaxivity components due to the inner and outersphere water molecules and the −OH group, respectively. r1^pr can be expressed as follows:[26]−[28] [drawing 2] 2
Proton relaxation measurements (1/T1) and the resulting 1/T1 NMRD profiles were measured on a fast-field cycling (FFC) Stelar SmarTracer relaxometer over a continuum of magnetic field strengths from 0.000 24 to 0.25 T (corresponding to 0.01–10 MHz proton Larmor frequencies). The relaxometer operates under computer control with an absolute uncertainty in 1/T1 of ±1%. […] Furthermore, the real temperature inside the probe head was additionally monitored by a Fluke 52 k/j digital thermometer (Fluke, Zürich, Switzerland). The gadolinium concentration was determined by measuring the bulk magnetic susceptibility shifts of the t-BuOH ^1H NMR signal. Additional data in the 20–120 MHz frequency range were obtained with a high field relaxometer (Stelar) equipped with the HTS-110 3T metrology cryogen-free superconducting magnet. […] The pH-dependent relaxivity measurements of GdL1 and GdL2 complexes were carried out by direct titration of the samples (GdL2, 3.0 < pH < 12.5; GdL1, 4 < pH < 10). The pH was adjusted by the stepwise addition of concentrated NaOH or HCl solution. Calculations were performed with the computer program Micromath Scientist, version 2.0 (Salt Lake City, UT).

[15] = 0.15 M NaCl, 25 °C ref [11] (SI)
[16] = I = 0.1 M Me4NCl, 298 K ref 19, 20
[17] = 0.1 M Me4NCl, 25 °C ref [13], [14] (SI)

Structure (SMILES): O=C(O)CN1CCN(CC(=O)O)CCN(C(CO)C(O)CO)CCN(CC(=O)O)CC1 (stereo not drawn) [BT-DO3A]
- pGd [1]: 15.63 ^h
- log K1^H ([2]; I = 0.1 M NaCl, 298 K ref 15): 9.46
- log K2^H ([2]; I = 0.1 M NaCl, 298 K ref 15): 9.36
- log K3^H ([2]; I = 0.1 M NaCl, 298 K ref 15): 4.17
- log K4^H ([2]; I = 0.1 M NaCl, 298 K ref 15): 3.02
- CaL (log K, stability constant) ([3]; I = 0.1 M NaCl, 298 K ref 15): 12.1
- ZnHL (log K) ([4]; 0.1 M NaCl, 25 °C ref [5] (SI)): 4.3
- ZnL (log K, stability constant) ([4]; I = 0.1 M NaCl, 298 K ref 15): 17.0
- CuH2L (log K) ([5]; 0.1 M NaCl, 25 °C ref [5] (SI)): 2.4
- CuHL (log K) ([5]; 0.1 M NaCl, 25 °C ref [5] (SI)): 3.8
- CuL (log K, stability constant) ([5]; I = 0.1 M NaCl, 298 K ref 15): 19.1
- GdL (log KGdL, stability constant) ([6]; I = 0.1 M NaCl, 298 K ref 15): 18.7
- GdH2L (log K, *Gd(H2L) out-of-cage intermediate) ([6]; footnote 0.15 M NaCl, 25 °C ref [5] (SI)): 4.53
- Gd(L)H–1 (log KGd(L)H-1) ([7]; I = 0.1 M NaCl, 298 K ref 15): 9.48
- log KNa(L) (stability of the Na^+ complex) [8]: 2.32

Structure (SMILES): O=C(O)CN1CCN(CC(=O)O)CCN(CC(=O)O)CCN(CC(=O)O)CC1 [DOTA]
- pGd [1]: 22.09 ^h
- log K1^H ([2]; I = 0.1 M NaCl, 298 K ref 22): 9.37
- log K2^H ([2]; I = 0.1 M NaCl, 298 K ref 22): 9.14
- log K3^H ([2]; I = 0.1 M NaCl, 298 K ref 22): 4.63
- log K4^H ([2]; I = 0.1 M NaCl, 298 K ref 22): 3.91
- GdL (log KGdL, stability constant) ([6]; I = 0.1 M NaCl, 298 K ref 22): 24.7
- GdH2L (log K, *Gd(H2L) out-of-cage intermediate) ([6]; footnote 0.15 M NaCl, 25 °C ref [16] (SI)): 6.07
- log KNa(L) (stability of the Na^+ complex) [8]: 4.38

Structure (SMILES): O=C([O-])CN1CCN(CC(=O)[O-])CCN(C(CO)C(O)CO)CCN(CC(=O)[O-])CC1.[Gd+3] (stereo not drawn) [GdBT-DO3A]
- k1 (acid-catalyzed dissociation rate constant) ([9]; 298 K ref 15): 2.8 × 10^–5 M^–1 s^–1
- kd at pH = 7.4 [10]: 1.35 × 10^–12 s^–1

Structure (SMILES): O=C([O-])CN1CCN(CC(=O)[O-])CCN(CC(=O)[O-])CCN(CC(=O)[O-])CC1.[Gd+3] [GdDOTA]
- K^HGdL ([9]; 298 K ref 18): 14 M^–1
- k1 (acid-catalyzed dissociation rate constant) ([9]; 298 K ref 18): 1.8 × 10^–6 M^–1 s^–1
- kd at pH = 7.4 [10]: 7.28 × 10^–14 s^–1

Structure (SMILES): NC(=O)[C@H](O)CN1CCN(CC(=O)[O-])CCN(CC(=O)[O-])CCN(CC(=O)[O-])CC1.[Gd+3] [GdHPADO3A]
- k1 (acid-catalyzed dissociation rate constant) ([9]; 298 K ref 7): 1.6 × 10^–4 M^–1 s^–1
- Δr1 (relaxivity increase) ([11]; from pH 7.4 to 5 ref 7): 5.5 mM^–1 s^–1
- kH × 10^–11 [12]: 2.1 M^–1 s^–1
- ^GdLH–1r1^is+os [12]: 4.32 mM^–1 s^–1
- ^GdLr1^is+os [12]: 4.57 mM^–1 s^–1
- ^298r1-60-MHz ([13]; 60 MHz ref 7): 3.6 mM^–1 s^–1
- ^310r1-60-MHz ([13]; 60 MHz ref 7): 2.9 mM^–1 s^–1
- Δ^2 [13]: 8.5 10^19 s^–2
- τR [13]: 62 ps
- τv [13]: 14 ps
- τR(SS) ([13]; determined for qSS = 2 and rSF = 3.5 Å ref 7): 13
- τM ([13]; pH 7 ref 7): 20 ns
- kd at pH = 7.4 [10]: 6.41 × 10^–12 s^–1

Structure (SMILES): CC(O)CN1CCN(CC(=O)[O-])CCN(CC(=O)[O-])CCN(CC(=O)[O-])CC1.[Gd+3] (stereo not drawn) [GdHPDO3A]
- k1 (acid-catalyzed dissociation rate constant) ([9]; 298 K ref 18): 2.9 × 10^–4 M^–1 s^–1
- Δr1 (base-catalyzed proton exchange contribution to r1) ([11]; pH > 10 ref 5): 1.2 mM^–1 s^–1
- kOH × 10^–10 [12]: 1.0 M^–1 s^–1
- ^GdLH–1r1^is+os [12]: 4.54 mM^–1 s^–1
- ^GdLr1^is+os [12]: 4.28 mM^–1 s^–1
- ^298r1-60-MHz ([13]; 60 MHz ref 24): 4.2 mM^–1 s^–1
- ^310r1-60-MHz ([13]; 60 MHz ref 24): 3.2 mM^–1 s^–1
- Δ^2 ([13]; SAP isomer ref 24): 9.9 10^19 s^–2
- τM ([13]; SAP isomer ref 24): 640 ns
- τv ([13]; SAP isomer ref 24): 8 ps
- Δ^2 ([13]; TSAP isomer ref 24): 1.5 10^19 s^–2
- τM ([13]; TSAP isomer ref 24): 8.5 ns
- τv ([13]; TSAP isomer ref 24): 30 ps
- τR [13]: 65 ps
- kd at pH = 7.4 [10]: 1.15 × 10^–11 s^–1

Structure (SMILES): [Gd+3] [Gd^3+]
- r1p [14]: 12.85 (2) mM^–1 s^–1

Structure (SMILES): NC(=O)[C@H](O)CN1CCN(CC(=O)O)CCN(CC(=O)O)CCN(CC(=O)O)CC1 [HPADO3A]
- pGd [1]: 16.88 ^h
- log K1^H ([2]; I = 0.15 M NaCl, 298 K ref 7): 8.96
- log K2^H ([2]; I = 0.15 M NaCl, 298 K ref 7): 9.07
- log K3^H ([2]; I = 0.15 M NaCl, 298 K ref 7): 4.22
- log K4^H ([2]; I = 0.15 M NaCl, 298 K ref 7): 2.64
- log K5^H ([2]; I = 0.15 M NaCl, 298 K ref 7): 1.25
- Ca(L)H-1 (log K) [3, 15]: 11.50
- CaHL (log K) [3, 15]: 4.67
- CaL (log K, stability constant) ([3]; I = 0.15 M NaCl, 298 K ref 7): 12.13
- Zn(L)H-1 (log K) [4, 15]: 10.79 (5)
- ZnH2L (log K) [4, 15]: 2.87
- ZnHL (log K) [4, 15]: 3.67
- ZnL (log K, stability constant) ([4]; I = 0.15 M NaCl, 298 K ref 7): 17.18
- Cu(L)H-1 (log K) [5, 15]: 10.55
- CuH2L (log K) [5, 15]: 1.24
- CuHL (log K) [5, 15]: 4.00
- CuL (log K, stability constant) ([5]; I = 0.15 M NaCl, 298 K ref 7): 21.53
- GdH2L (log K, *Gd(H2L) out-of-cage intermediate) [6, 15]: 5.72
- GdL (log KGdL, stability constant) ([6]; I = 0.15 M NaCl, 298 K ref 7): 18.41
- Gd(L)H–1 (log KGd(L)H-1) ([7]; I = 0.15 M NaCl, 298 K ref 7): 6.73

Structure (SMILES): CC(O)CN1CCN(CC(=O)O)CCN(CC(=O)O)CCN(CC(=O)O)CC1 (stereo not drawn) [HPDO3A, 10-(2-hydroxypropyl)-1,4,7,10-tetraazacyclododecane-1,4,7-triacetic acid]
- pGd [1]: 18.16 ^h
- log K1^H [2, 16]: 11.96
- log K2^H [2, 16]: 9.43
- log K3^H [2, 16]: 4.30
- log K4^H [2, 16]: 3.26
- CaL (log K, stability constant) [3, 16]: 14.83
- ZnHL (log K) [4, 17]: 3.7
- ZnL (log K, stability constant) [4, 16]: 19.37
- CuH2L (log K) [5, 17]: 2.3
- CuHL (log K) [5, 17]: 3.72
- CuL (log K, stability constant) [5, 16]: 22.84
- GdL (log KGdL, stability constant) [6, 16]: 23.8
- GdH2L (log K, *Gd(H2L) out-of-cage intermediate) ([6]; footnote 0.15 M NaCl, 25 °C ref [13], [14] (SI)): 5.10
